Laboratory results from ChEMBL document CHEMBL4428125, “8-Substituted 1,3-dimethyltetrahydropyrazino[2,1-f]purinediones: Water-soluble adenosine receptor antagonists and monoamine oxidase B inhibitors” (Bioorg Med Chem, 2016).
Converted amounts (≈) assume the structure as drawn. The source made the active and inactive calls. No cut-off for these calls is given here.

Assays:
[1] = target: T1, Adenosine receptor A3 (Homo sapiens, UniProt P0DMS8); assay: Displacement of [3H]PSB-11 from human A3 receptor expressed in CHO cell membrane by liquid scintillation counting method relative to control; assay type: cell membranes
T1 sequence (P0DMS8 whole entry): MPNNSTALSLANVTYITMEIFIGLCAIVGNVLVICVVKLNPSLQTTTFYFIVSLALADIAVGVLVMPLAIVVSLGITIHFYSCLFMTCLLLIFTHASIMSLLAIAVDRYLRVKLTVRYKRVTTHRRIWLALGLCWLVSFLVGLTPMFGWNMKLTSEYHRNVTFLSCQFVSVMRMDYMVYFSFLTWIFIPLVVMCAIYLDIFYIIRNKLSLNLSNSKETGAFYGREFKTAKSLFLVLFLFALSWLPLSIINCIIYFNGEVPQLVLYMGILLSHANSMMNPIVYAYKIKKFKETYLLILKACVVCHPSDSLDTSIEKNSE

[2] = target: T2, Adenosine receptor A3 (Homo sapiens) (UniProt P0DMS8); assay: Displacement of [3H]PSB-11 from human A3 receptor expressed in CHO cell membrane at 10 uM by liquid scintillation counting method relative to control relative to control; assay type: cell membranes
T2 sequence (whole entry): T1 sequence (P0DMS8 whole entry)

[3] = target: T3, Adenosine receptor A1 (Rattus norvegicus, UniProt P25099); assay: Displacement of [3H]MSX from rat A1 receptor measured after 75 mins by liquid scintillation counting method
T3 sequence (P25099 whole entry): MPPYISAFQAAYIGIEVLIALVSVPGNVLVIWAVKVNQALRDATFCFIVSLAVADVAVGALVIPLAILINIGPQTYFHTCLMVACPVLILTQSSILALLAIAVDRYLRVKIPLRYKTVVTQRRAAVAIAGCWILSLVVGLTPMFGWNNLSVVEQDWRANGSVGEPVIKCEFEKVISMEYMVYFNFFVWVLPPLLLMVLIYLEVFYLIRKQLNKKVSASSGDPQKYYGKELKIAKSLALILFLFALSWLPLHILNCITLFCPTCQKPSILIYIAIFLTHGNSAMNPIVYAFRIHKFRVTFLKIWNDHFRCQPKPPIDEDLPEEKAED

[4] = target: T4, Adenosine receptor A2b (Homo sapiens) (UniProt P29275); assay: Displacement of [3H]PSB-603 from human A2B receptor expressed in CHO cell membrane measured after 75 mins by liquid scintillation counting method relative to control; assay type: cell membranes
T4 sequence (whole entry): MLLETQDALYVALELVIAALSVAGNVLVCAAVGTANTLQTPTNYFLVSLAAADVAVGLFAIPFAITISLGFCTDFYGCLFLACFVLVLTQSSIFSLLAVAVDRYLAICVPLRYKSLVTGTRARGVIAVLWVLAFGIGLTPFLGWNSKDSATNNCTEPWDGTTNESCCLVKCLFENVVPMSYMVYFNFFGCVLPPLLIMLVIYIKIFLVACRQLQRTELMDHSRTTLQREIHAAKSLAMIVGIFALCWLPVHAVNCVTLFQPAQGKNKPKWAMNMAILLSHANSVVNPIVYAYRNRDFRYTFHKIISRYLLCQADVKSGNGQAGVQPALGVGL

[5] = target: T5, Amine oxidase [flavin-containing] B (Homo sapiens, UniProt P27338); assay: Inhibition of recombinant human MAO-B expressed in baculovirus infected BTI insect cells at 10 uM preincubated for 30 mins followed by addition of p-tyramine as substrate measured over 45 mins by Amplex Red MAO assay relative to control; settings: 0.75 h
T5 sequence (P27338 whole entry): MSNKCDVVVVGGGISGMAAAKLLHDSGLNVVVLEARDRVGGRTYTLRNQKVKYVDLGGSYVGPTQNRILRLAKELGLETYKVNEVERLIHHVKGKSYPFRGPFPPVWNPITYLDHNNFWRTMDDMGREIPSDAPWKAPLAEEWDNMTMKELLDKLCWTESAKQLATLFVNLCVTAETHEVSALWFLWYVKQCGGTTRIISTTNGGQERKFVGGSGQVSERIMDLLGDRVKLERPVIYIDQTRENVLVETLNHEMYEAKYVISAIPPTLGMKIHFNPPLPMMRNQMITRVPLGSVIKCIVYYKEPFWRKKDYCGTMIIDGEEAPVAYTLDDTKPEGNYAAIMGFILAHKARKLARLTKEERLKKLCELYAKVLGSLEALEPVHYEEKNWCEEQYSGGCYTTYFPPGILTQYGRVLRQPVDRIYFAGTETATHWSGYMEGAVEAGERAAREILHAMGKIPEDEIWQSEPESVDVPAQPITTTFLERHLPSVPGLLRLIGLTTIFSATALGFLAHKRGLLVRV

[6] = target: T5, Amine oxidase [flavin-containing] B; assay: Inhibition of recombinant human MAO-B expressed in baculovirus infected BTI insect cells preincubated for 30 mins followed by addition of p-tyramine as substrate measured over 45 mins by Amplex Red MAO assay
[7] = target: T3, Adenosine receptor A1; assay: Displacement of [3H]CCPA from rat A1 receptor by liquid scintillation counting method
[8] = target: T6, Adenosine receptor A2b (Homo sapiens, UniProt P29275); assay: Displacement of [3H]PSB-603 from human A2B receptor expressed in CHO cell membrane measured after 75 mins by liquid scintillation counting method; assay type: cell membranes
T6 sequence (P29275 whole entry): T4 sequence (whole entry)

[9] = target: T7, Adenosine receptor A1 (Homo sapiens, UniProt P30542); assay: Displacement of [3H]CCPA from human A1 receptor expressed in CHO cell membrane by liquid scintillation counting method; assay type: cell membranes
T7 sequence (P30542 whole entry): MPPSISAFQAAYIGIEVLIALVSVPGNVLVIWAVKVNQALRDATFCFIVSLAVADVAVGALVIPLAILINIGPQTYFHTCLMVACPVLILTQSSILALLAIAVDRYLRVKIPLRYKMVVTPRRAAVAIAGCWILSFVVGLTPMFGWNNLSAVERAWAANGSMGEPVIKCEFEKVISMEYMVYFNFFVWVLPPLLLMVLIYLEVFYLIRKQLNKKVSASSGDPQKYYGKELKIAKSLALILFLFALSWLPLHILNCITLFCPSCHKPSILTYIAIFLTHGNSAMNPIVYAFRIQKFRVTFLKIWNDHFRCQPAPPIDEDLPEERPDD

[10] = target: T8, Adenosine receptor A2a (Homo sapiens, UniProt P29274); assay: Displacement of [3H]MSX from human A2A receptor by liquid scintillation counting method
T8 sequence (P29274 whole entry): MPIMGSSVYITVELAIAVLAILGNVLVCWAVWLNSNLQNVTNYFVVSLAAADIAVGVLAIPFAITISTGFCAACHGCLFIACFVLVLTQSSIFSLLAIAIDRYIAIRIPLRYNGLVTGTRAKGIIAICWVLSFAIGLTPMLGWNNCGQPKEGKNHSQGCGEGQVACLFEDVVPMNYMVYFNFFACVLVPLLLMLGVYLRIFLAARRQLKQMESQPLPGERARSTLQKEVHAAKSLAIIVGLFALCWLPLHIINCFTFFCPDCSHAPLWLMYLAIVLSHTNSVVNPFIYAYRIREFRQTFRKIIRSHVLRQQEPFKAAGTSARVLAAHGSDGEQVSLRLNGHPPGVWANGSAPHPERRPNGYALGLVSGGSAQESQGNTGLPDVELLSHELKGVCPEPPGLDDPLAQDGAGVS

[11] = target: T8, Adenosine receptor A2a; assay: Agonist activity at recombinant human A2A receptor expressed in CHO cells assessed as increase in forskolin-induced cAMP level at 10 uM preincubated for 20 mins prior to forskolin-stimulation measure after 5 mins by liquid scintillation counting method; assay type: functional, cell-based
[12] = target: T8, Adenosine receptor A2a; assay: Agonist activity at recombinant human A2A receptor expressed in CHO cells assessed as increase in forskolin-induced cAMP level at 1 uM preincubated for 20 mins prior to forskolin-stimulation measure after 5 mins by liquid scintillation counting method; assay type: functional, cell-based
[13] = target: T9, Adenosine receptor A1 (Homo sapiens) (UniProt P30542); assay: Agonist activity at recombinant human A1 receptor expressed in CHO cells assessed as inhibition of forskolin-induced cAMP accumulation at 10 uM preincubated for 20 mins prior to forskolin-stimulation measure after 5 mins by liquid scintillation counting method; assay type: functional, cell-based
T9 sequence (whole entry): T7 sequence (P30542 whole entry)

[14] = target: T6, Adenosine receptor A2b; assay: Displacement of [3H]PSB-603 from human A2B receptor expressed in CHO cell membrane; assay type: cell membranes
[15] = target: T9, Adenosine receptor A1 (Homo sapiens); assay: Agonist activity at recombinant human A1 receptor expressed in CHO cells assessed as inhibition of forskolin-induced cAMP accumulation at 1 uM preincubated for 20 mins prior to forskolin-stimulation measure after 5 mins by liquid scintillation counting method; assay type: functional, cell-based
[16] = target: Adenosine receptor A2a (Rattus norvegicus, UniProt P30543); assay: Displacement of [3H]MSX from A2A receptor in rat brain striatum membranes measured after 30 mins by liquid scintillation counting method; assay type: cell membranes
Chain of Adenosine receptor A2a (Rattus norvegicus, UniProt P30543) (P30543 whole entry): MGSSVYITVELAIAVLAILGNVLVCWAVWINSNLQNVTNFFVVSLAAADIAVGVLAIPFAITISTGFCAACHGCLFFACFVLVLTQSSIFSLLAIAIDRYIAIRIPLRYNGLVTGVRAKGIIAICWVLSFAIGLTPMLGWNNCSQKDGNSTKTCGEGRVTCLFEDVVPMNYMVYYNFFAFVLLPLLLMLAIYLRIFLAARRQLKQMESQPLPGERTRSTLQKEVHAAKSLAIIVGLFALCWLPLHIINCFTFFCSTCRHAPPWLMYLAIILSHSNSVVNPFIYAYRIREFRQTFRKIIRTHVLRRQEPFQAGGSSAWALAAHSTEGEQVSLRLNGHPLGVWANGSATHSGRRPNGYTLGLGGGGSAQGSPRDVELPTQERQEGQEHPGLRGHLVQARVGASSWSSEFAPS

[17] = target: T4, Adenosine receptor A2b (Homo sapiens); assay: Displacement of [3H]PSB-603 from human A2B receptor expressed in CHO cell membrane at 1 uM relative to control; assay type: cell membranes
[18] = target: T3, Adenosine receptor A1; assay: Displacement of [3H]CCPA from A1 receptor in rat brain cortex membranes by liquid scintillation counting method; assay type: cell membranes
[19] = target: T8, Adenosine receptor A2a; assay: Displacement of [3H]MSX from human A2A receptor measured after 30 mins by liquid scintillation counting method
[20] = Thermodynamic solubility of the compound at pH 7.4; assay type: physicochemical; settings: buffer, read-out: Therm_solubility
[21] = target: T10, Adenosine receptor A1 (Rattus norvegicus) (UniProt P25099); assay: Displacement of [3H]CCPA from A1 receptor in rat brain cortex membranes at 1.5 uM by liquid scintillation counting method; assay type: cell membranes
T10 sequence (whole entry): T3 sequence (P25099 whole entry)

[22] = target: T4, Adenosine receptor A2b (Homo sapiens); assay: Displacement of [3H]PSB-603 from human A2B receptor expressed in CHO cell membrane at […] relative to control; assay type: cell membranes
[23] = target: Adenosine receptor A2a (Rattus norvegicus) (UniProt P30543); assay: Displacement of [3H]MSX from A2A receptor in rat brain striatum membranes at 1 uM measured after 30 mins by liquid scintillation counting method relative to control; assay type: cell membranes
Chain of Adenosine receptor A2a (Rattus norvegicus) (P30543 whole entry): as above

[24] = target: T11, Amine oxidase [flavin-containing] A (Homo sapiens, UniProt P21397); assay: Inhibition of recombinant human MAO-A expressed in baculovirus infected BTI insect cells at 10 uM preincubated for 30 mins followed by addition of p-tyramine as substrate measured over 45 mins by Amplex Red MAO assay relative to control; settings: 0.75 h
T11 sequence (P21397 whole entry): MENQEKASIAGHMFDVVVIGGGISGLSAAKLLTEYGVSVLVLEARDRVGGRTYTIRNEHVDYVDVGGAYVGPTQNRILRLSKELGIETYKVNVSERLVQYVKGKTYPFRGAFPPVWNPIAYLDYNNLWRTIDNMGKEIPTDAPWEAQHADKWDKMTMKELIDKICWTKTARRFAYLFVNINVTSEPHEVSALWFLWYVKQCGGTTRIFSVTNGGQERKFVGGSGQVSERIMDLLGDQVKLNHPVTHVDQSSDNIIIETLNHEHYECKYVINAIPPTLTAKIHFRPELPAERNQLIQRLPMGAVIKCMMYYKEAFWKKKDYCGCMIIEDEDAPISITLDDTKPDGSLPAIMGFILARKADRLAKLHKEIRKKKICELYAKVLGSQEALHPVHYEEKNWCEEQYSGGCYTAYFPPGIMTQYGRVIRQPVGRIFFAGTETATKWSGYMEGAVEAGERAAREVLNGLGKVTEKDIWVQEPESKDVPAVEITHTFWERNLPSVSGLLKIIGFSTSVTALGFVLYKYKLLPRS

[25] = species: Homo sapiens; assay: Selectivity ratio, ratio of Ki for human A2A receptor to Ki for human A1 receptor
[26] = target: T11, Amine oxidase [flavin-containing] A; assay: Inhibition of recombinant human MAO-A expressed in baculovirus infected BTI insect cells preincubated for 30 mins followed by addition of p-tyramine as substrate measured over 45 mins by Amplex Red MAO assay

| SMILES | Ki [1] [nM] | Activity [2] [%] | inhibition at 10 µM [5] [%] | IC50 [6] [nM] | Ki [9] [nM] | Activity [11] | Activity [12] | Activity [13] | Ki [14] [nM] | Activity [15] | Ki [16] [nM] | Activity [17] [%] | Ki [18] [nM] | Ki [19] [nM] | solubility thermodynamic [20] [µg/mL] | other results |
| --- | --- | --- | --- | --- | --- | --- | --- | --- | --- | --- | --- | --- | --- | --- | --- | --- |
| Cn1c(=O)c2c(nc3n2CCN(Cc2ccccc2)C3)n(C)c1=O | > 10000 | 21 | 36 | > 10000 | 265 |  |  |  |  |  |  |  |  |  |  | Ki [3]: 598 nM; Activity [4]: 15%; Ki [7]: 79.3 nM; Ki [8]: > 1000 nM; Ki [10]: 1060 nM |
| Cn1c(=O)c2c(nc3n2CCN(Cc2csc(-c4cccs4)n2)C3)n(C)c1=O | ≥ 10000 | 46 | 33 | > 10000 | 642 | inactive | inactive | inactive | > 1000 | inactive | 121 | 3 | 166 | 203 | 700 (≈ 1690 µM) |  |
| Cn1c(=O)c2c(nc3n2CCN(Cc2nocc2-c2ccccc2)C3)n(C)c1=O | 8720 |  | 39 | > 10000 |  |  |  |  |  |  | > 1000 |  | > 1500 |  |  | Activity [21]: 21%; inhibition [22]: 18%; Activity [23]: 5% |
| Cn1c(=O)c2c(nc3n2CCN(CCCc2ccc(Cl)cc2)C3)n(C)c1=O | > 10000 | 34 | 44 | > 10000 | 65.5 | inactive | inactive | inactive | > 1000 | inactive | 316 | 7 | 352 | 230 | 4 (≈ 10.3 µM) | inhibition at 10 µM [24]: 12%; Ratio Ki [25]: 4; IC50 [26]: > 10000 nM |
